Measured values as given in US8232406B2, “c-MET protein kinase inhibitors” (Vertex Pharmaceuticals Incorporated, priority 2006, dated 2012).

Molecular target: c-MET (Homo sapiens, UniProt P08581)
Assay: Ki determination for the inhibition of c-MET (standard radiometric 33P-ATP kinase assay, polyE4Y substrate)
Format: biochemical
Conditions: 1.0 nM c-Met, 35 μM ATP, 0.5 mg/mL polyE4Y, 20 min; competitive tight-binding fit
Outline: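 Radiometric assay of 33P transfer from 33P-ATP (35 μM) to polyE4Y (0.5 mg/mL) by 1.0 nM c-Met in 100 mM HEPES pH 7.5, 10 mM MgCl2, 25 mM NaCl, 0.01% BSA, 1 mM DTT. TCA-quenched after 20 min, filter-captured, scintillation-counted; Ki fitted to a competitive tight-binding model.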

Sequence of c-MET (P08581 25-1390): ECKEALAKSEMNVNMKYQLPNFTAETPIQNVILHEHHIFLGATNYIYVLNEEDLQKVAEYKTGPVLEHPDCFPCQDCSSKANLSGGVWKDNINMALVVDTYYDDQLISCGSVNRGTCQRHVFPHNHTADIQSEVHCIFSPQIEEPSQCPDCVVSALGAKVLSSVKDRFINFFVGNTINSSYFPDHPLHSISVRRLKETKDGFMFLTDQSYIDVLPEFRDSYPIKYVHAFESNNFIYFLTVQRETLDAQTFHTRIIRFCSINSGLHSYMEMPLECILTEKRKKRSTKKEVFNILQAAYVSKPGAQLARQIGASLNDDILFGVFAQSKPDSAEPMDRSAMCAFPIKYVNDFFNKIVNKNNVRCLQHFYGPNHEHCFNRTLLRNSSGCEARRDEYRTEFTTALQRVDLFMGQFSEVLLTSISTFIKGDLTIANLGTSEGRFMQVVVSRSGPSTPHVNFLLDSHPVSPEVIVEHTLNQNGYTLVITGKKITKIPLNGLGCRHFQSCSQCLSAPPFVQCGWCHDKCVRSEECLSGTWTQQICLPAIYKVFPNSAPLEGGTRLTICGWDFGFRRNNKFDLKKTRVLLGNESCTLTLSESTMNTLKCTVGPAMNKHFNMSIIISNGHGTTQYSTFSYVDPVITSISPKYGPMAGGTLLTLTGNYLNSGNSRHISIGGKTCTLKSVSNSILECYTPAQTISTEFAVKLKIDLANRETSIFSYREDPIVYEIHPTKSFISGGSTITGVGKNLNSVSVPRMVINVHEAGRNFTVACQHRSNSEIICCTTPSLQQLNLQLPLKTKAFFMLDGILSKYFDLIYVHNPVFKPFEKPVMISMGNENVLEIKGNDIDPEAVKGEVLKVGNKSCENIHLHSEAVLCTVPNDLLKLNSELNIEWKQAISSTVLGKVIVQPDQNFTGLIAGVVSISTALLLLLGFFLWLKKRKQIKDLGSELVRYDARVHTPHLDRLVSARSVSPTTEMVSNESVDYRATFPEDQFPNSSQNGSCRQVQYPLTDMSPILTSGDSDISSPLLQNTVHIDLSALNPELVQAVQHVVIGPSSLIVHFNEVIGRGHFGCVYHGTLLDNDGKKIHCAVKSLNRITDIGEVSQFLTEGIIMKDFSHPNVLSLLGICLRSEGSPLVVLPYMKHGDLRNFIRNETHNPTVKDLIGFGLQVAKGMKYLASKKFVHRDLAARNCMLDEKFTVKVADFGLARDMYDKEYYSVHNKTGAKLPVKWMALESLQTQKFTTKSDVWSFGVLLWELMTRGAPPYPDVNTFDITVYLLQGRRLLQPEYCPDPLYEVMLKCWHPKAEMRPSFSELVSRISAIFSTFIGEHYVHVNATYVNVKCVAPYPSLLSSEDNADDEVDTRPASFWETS

| Ki [nM] | SMILES |
| --- | --- |
| ≤ 100 | COc1ccc(-c2cnc(N)c(-c3nnnn3-c3cccc(F)c3F)c2)cc1F [I-A-290] |
| 100 to 1000 | Nc1ncc(-c2cc(O)c(F)c(F)c2)cc1-c1nnnn1-c1cccc(F)c1F [I-A-291] |
| ≤ 100 | Nc1ncc(-c2cc(F)ccc2O)cc1-c1nnnn1-c1cccc(F)c1F [I-A-292] |
| 100 to 1000 | Nc1ncc(-c2cc(F)ccc2F)cc1-c1nnnn1-c1cccc(F)c1F [I-A-294] |
| ≤ 100 | Nc1ncc(-c2ccc(O)c(F)c2)cc1-c1nnnn1-c1cccc(F)c1F [I-A-295] |
| 100 to 1000 | COc1cc(-c2cnc(N)c(-c3nnnn3-c3cccc(F)c3F)c2)cc(OC)c1OC [I-A-296] |
| ≤ 100 | Nc1ccc(-c2cnc(N)c(-c3nnnn3-c3cccc(F)c3F)c2)cc1N [I-A-298] |
| ≤ 100 | COc1cc(-c2cnc(N)c(-c3nnnn3-c3cccc(F)c3F)c2)ccc1O [I-A-299] |
| 100 to 1000 | Nc1ncc(-c2cccc(F)c2F)cc1-c1nnnn1-c1cccc(F)c1F [I-A-301] |
| ≤ 100 | Nc1ncc(-c2cc(F)c(N)c(F)c2)cc1-c1nnnn1-c1cccc(F)c1F [I-A-303] |
| 100 to 1000 | Nc1ncc(-c2ccc3nccnc3c2)cc1-c1nnnn1-c1cccc(F)c1F [I-A-304] |
| ≤ 100 | Nc1ncc(-c2cccc3c2OCO3)cc1-c1nnnn1-c1cccc(F)c1F [I-A-305] |
| 100 to 1000 | COc1ccc(OC)c(-c2cnc(N)c(-c3nnnn3-c3cccc(F)c3F)c2)c1 [I-A-306] |
| ≤ 100 | Nc1nc2ccc(-c3cnc(N)c(-c4nnnn4-c4cccc(F)c4F)c3)cc2s1 [I-A-308] |
| ≤ 100 | COc1ccc(-c2cnc(N)c(-c3nnnn3-c3cccc(F)c3F)c2)cc1OC [I-A-309] |
| 100 to 1000 | Nc1ncc(-c2cccc3c2OC(F)(F)O3)cc1-c1nnnn1-c1cccc(F)c1F [I-A-310] |
| ≤ 100 | Nc1ccc(-c2cnc(N)c(-c3nnnn3-c3cccc(F)c3F)c2)cc1[N+](=O)[O-] [I-A-312] |
| ≤ 100 | Nc1ncc(-c2ccccc2F)cc1-c1nnnn1-c1cccc(F)c1F [I-A-313] |
| ≤ 100 | Nc1ncc(-c2cccc(F)c2)cc1-c1nnnn1-c1cccc(F)c1F [I-A-314] |
| 100 to 1000 | CCOc1cccc(-c2cnc(N)c(-c3nnnn3-c3cccc(F)c3F)c2)c1 [I-A-315] |
| 100 to 1000 | COC(=O)c1ccc(-c2cnc(N)c(-c3nnnn3-c3cccc(F)c3F)c2)cc1 [I-A-316] |

| Ki [nM] | SMILES |
| --- | --- |
| 100 to 1000 | COC(=O)c1cccc(-c2cnc(N)c(-c3nnnn3-c3cccc(F)c3F)c2)c1 [I-A-317] |
| 100 to 1000 | Nc1ncc(-c2ccc(F)nc2)cc1-c1nnnn1-c1cccc(F)c1F [I-A-318] |
| 100 to 1000 | Nc1ncc(-c2ccnc(F)c2)cc1-c1nnnn1-c1cccc(F)c1F [I-A-319] |
| 100 to 1000 | Nc1ncc(-c2cccc(C(=O)N3CCOCC3)c2)cc1-c1nnnn1-c1cccc(F)c1F [I-A-320] |
| ≤ 100 | Nc1ncc(-c2ccc3ncccc3c2)cc1-c1nnnn1-c1cccc(F)c1F [I-A-321] |
| 100 to 1000 | CC1(C)CN(c2cccc(-c3cnc(N)c(-c4nnnn4-c4cccc(F)c4F)c3)c2)C1=O [I-A-324] |
| ≤ 100 | Nc1ncc(-c2ccc(C3CCOC(=O)N3)cc2)cc1-c1nnnn1-c1cccc(F)c1F (stereo not drawn) [I-A-325] |
| 100 to 1000 | COC(=O)[C@H](CC(C)C)NC(=O)Nc1cccc(-c2cnc(N)c(-c3nnnn3-c3cccc(F)c3F)c2)c1 [I-A-326] |
| 100 to 1000 | COC(=O)C(C)NC(=O)Nc1cccc(-c2cnc(N)c(-c3nnnn3-c3cccc(F)c3F)c2)c1 (stereo not drawn) [I-A-327] |
| ≤ 100 | CC(C)(C)NC(=O)Nc1cccc(-c2cnc(N)c(-c3nnnn3-c3cccc(F)c3F)c2)c1 [I-A-328] |
| ≤ 100 | Nc1ncc(-c2cccc(NC(=O)NC3CCCC3)c2)cc1-c1nnnn1-c1cccc(F)c1F [I-A-329] |
| 100 to 1000 | COC(=O)[C@H](CC(C)C)NC(=O)Nc1ccc(-c2cnc(N)c(-c3nnnn3-c3cccc(F)c3F)c2)cc1 [I-A-330] |
| ≤ 100 | COC(=O)C(C)NC(=O)Nc1ccc(-c2cnc(N)c(-c3nnnn3-c3cccc(F)c3F)c2)cc1 (stereo not drawn) [I-A-331] |
| ≤ 100 | CC(C)(C)NC(=O)Nc1ccc(-c2cnc(N)c(-c3nnnn3-c3cccc(F)c3F)c2)cc1 [I-A-332] |
| 100 to 1000 | Nc1ncc(-c2ccc(NC(=O)NC3CCCC3)cc2)cc1-c1nnnn1-c1cccc(F)c1F [I-A-333] |
| ≤ 100 | N#CCC(=O)Nc1ccc(-c2cnc(N)c(-c3nnnn3-c3cccc(F)c3F)c2)cc1 [I-A-334] |
| ≤ 100 | CC(=O)N1CCCC1c1ccc(-c2cnc(N)c(-c3nnnn3-c3cccc(F)c3F)c2)cc1 (stereo not drawn) [I-A-335] |
| 100 to 1000 | N#Cc1cc(-c2cnc(N)c(-c3nnnn3-c3cccc(F)c3F)c2)ccc1N1CCCC1 [I-A-336] |
| ≤ 100 | CC(=O)N(C)c1ccc(-c2cnc(N)c(-c3nnnn3-c3cccc(F)c3F)c2)cc1 [I-A-337] |
| ≤ 100 | Nc1ncc(-c2ccc(NC(=O)CO)cc2)cc1-c1nnnn1-c1cccc(F)c1F [I-A-338] |
| ≤ 100 | CC(=O)Nc1cc(-c2cnc(N)c(-c3nnnn3-c3cccc(F)c3F)c2)ccc1CN1CCCC1 [I-A-339] |

| Ki [nM] | SMILES |
| --- | --- |
| ≤ 100 | Nc1ncc(-c2ccc(CN3CCCC3)c([N+](=O)[O-])c2)cc1-c1nnnn1-c1cccc(F)c1F [I-A-340] |
| ≤ 100 | CNc1ccc(-c2cnc(N)c(-c3nnnn3-c3cccc(F)c3F)c2)cc1C#N [I-A-341] |
| ≤ 100 | COCC(=O)Nc1ccc(-c2cnc(N)c(-c3nnnn3-c3cccc(F)c3F)c2)cc1 [I-A-342] |
| ≤ 100 | Nc1ncc(-c2ccc(CN3CCCC3)cc2)cc1-c1nnnn1-c1cccc(Cl)c1F [I-A-343] |
| ≤ 100 | CC(=O)Nc1cccc(-c2cnc(N)c(-c3nnnn3-c3cccc(Cl)c3F)c2)c1 [I-A-344] |
| ≤ 100 | CCOC(=O)Cn1cc(-c2cnc(N)c(-c3nnnn3-c3cccc(F)c3F)c2)cn1 [I-A-345] |
| ≤ 100 | Nc1ncc(-c2ccc(OCCN3CCCC3)cc2)cc1-c1nnnn1-c1cccc(F)c1F [I-A-346] |
| ≤ 100 | Nc1ncc(-c2ccc3[nH]ncc3c2)cc1-c1nnnn1-c1cccc(F)c1F [I-A-347] |
| ≤ 100 | CC(C)(O)Cn1cc(-c2cnc(N)c(-c3nnnn3-c3cccc(F)c3F)c2)cn1 [I-A-348] |
| ≤ 100 | Nc1ncc(-c2cnn(Cc3ccccc3)c2)cc1-c1nnnn1-c1cccc(F)c1F [I-A-349] |
| 100 to 1000 | Nc1ncc(-c2cnn(CC(=O)O)c2)cc1-c1nnnn1-c1cccc(F)c1F [I-A-350] |
| ≤ 100 | CN[C@@H](C)c1ccc(-c2cnc(N)c(-c3nnnn3-c3cccc(F)c3F)c2)cc1 [I-A-351] |
| 100 to 1000 | COC(=O)Nc1ccc(-c2cnc(N)c(-c3nnnn3-c3cccc(F)c3F)c2)cc1 [I-A-352] |
| 100 to 1000 | CS(=O)(=O)Nc1ccc(-c2cnc(N)c(-c3nnnn3-c3cccc(F)c3F)c2)cc1 [I-A-353] |
| ≤ 100 | COCCOc1ccc(-c2cnc(N)c(-c3nnnn3-c3cccc(F)c3F)c2)cc1OCCOC [I-A-354] |
| 100 to 1000 | Nc1ncc(-c2ccc(CN3CCCC3)cc2)cc1-c1nnnn1-c1cccc(Cl)c1 [I-A-356] |
| 100 to 1000 | CC1(C)CN(c2ccc(-c3cnc(N)c(-c4nnnn4-c4cccc(F)c4F)c3)cc2)C1=O [I-A-357] |
| 100 to 1000 | CN(C)Cc1ccc(-c2cnc(N)c(-c3nnnn3-c3cccc(Cl)c3)c2)cc1 [I-A-358] |
| 100 to 1000 | CC(=O)Nc1cccc(-c2cnc(N)c(-c3nnnn3-c3cccc(Cl)c3)c2)c1 [I-A-359] |
| ≤ 100 | CN(C)Cc1ccc(-c2cnc(N)c(-c3nnnn3-c3cccc(Cl)c3F)c2)cc1 [I-A-360] |
| 100 to 1000 | Nc1ncc(-c2ccc(CN3CCCC3)cc2)cc1-c1nnc(O)n1-c1cccc(F)c1F [I-A-362] |

| Ki [nM] | SMILES |
| --- | --- |
| 100 to 1000 | Nc1ncc(-c2cnn(CC(=O)N3CCCC3)c2)cc1-c1nnnn1-c1cccc(F)c1F [I-A-364] |
| 100 to 1000 | Nc1ncc(-c2cnn(C(c3ccccc3)(c3ccccc3)c3ccccc3)c2)cc1-c1nnnn1-c1cccc(F)c1F [I-A-365] |
| ≤ 100 | Nc1ncc(-c2cn[nH]c2)cc1-c1nnnn1-c1cccc(F)c1F [I-A-366] |
| ≤ 100 | COCCn1cc(-c2cnc(N)c(-c3nnnn3-c3cccc(F)c3F)c2)cn1 [I-A-367] |
| ≤ 100 | Nc1ncc(-c2cnn(CC(O)CO)c2)cc1-c1nnnn1-c1cccc(F)c1F (stereo not drawn) [I-A-368] |
| 100 to 1000 | CNC(=O)Cn1cc(-c2cnc(N)c(-c3nnnn3-c3cccc(F)c3F)c2)cn1 [I-A-369] |
| ≤ 100 | Nc1ncc(-c2cnn(C3CCNCC3)c2)cc1-c1nnnn1-c1cccc(F)c1F [I-A-370] |
| ≤ 100 | Nc1ncc(-c2cnn(C3CCNCC3)c2)cc1-c1nnnn1-c1cccc(Cl)c1Cl [I-A-371] |
| ≤ 100 | Nc1ncc(-c2ccc(N3CC(CO)OC3=O)cc2)cc1-c1nnnn1-c1cccc(F)c1F (stereo not drawn) [I-A-372] |
| ≤ 100 | Nc1ncc(-c2ccc(CN3CCCC3)cc2)cc1-c1nnnn1-c1c(F)ccc(Cl)c1F [I-A-376] |
| ≤ 100 | CN(C)Cc1ccc(-c2cnc(N)c(-c3nnnn3-c3c(F)ccc(Cl)c3F)c2)cc1 [I-A-377] |
| ≤ 100 | Nc1ncc(-c2ccc(CN3CCCC3)cc2)cc1-c1nnnn1-c1c(F)ccc(F)c1F [I-A-380] |
| ≤ 100 | CN(C)Cc1ccc(-c2cnc(N)c(-c3nnnn3-c3c(F)ccc(F)c3F)c2)cc1 [I-A-381] |
| ≤ 100 | Nc1ncc(-c2cnn(C3CCNCC3)c2)cc1-c1nnnn1-c1c(F)ccc(Cl)c1F [I-A-382] |
| 100 to 1000 | CC(=O)Nc1cccc(-c2cnc(N)c(-c3nnnn3-c3c(F)ccc(F)c3N)c2)c1 [I-A-383] |
| ≤ 100 | Nc1ncc(-c2cnn(C3CCNCC3)c2)cc1-c1nnnn1-c1cccc(F)c1Cl [I-A-385] |
| 100 to 1000 | Nc1ncc(-c2ccc(CN3CCCC3)cc2)cc1-c1nnnn1-c1cccc(F)c1Cl [I-A-386] |
| 100 to 1000 | CN(C)Cc1ccc(-c2cnc(N)c(-c3nnnn3-c3cccc(F)c3Cl)c2)cc1 [I-A-387] |
| 100 to 1000 | Cc1nnc(-c2cc(-c3ccc(CN4CCCC4)cc3)cnc2N)n1-c1cccc(F)c1Cl [I-A-388] |
| 100 to 1000 | Cc1nnc(-c2cc(-c3ccc(CN(C)C)cc3)cnc2N)n1-c1cccc(F)c1Cl [I-A-389] |
| 100 to 1000 | Cc1nnc(-c2cc(-c3cnn(C4CCNCC4)c3)cnc2N)n1-c1cccc(F)c1Cl [I-A-390] |
